Assays:
Assay type in all cases: cell-based, human
QSOX1-a protein = QSOX1-a protein abundance by Western blotting in MDA-MB-231 cells; conditions: 10 μM
Experimental: Measuring Protein Abundance by Western Blotting. MDA-MB-231 cells were seeded in 6-well plates at ˜50% confluency and treated with vehicle (DMSO) or compound as described above but without EU treatment. After 16 h, the compound-containing growth medium was removed and replaced with fresh medium containing compound (re-dosing). After an additional 32 h incubation, total protein was harvested (48 h total treatment time). The cells were then washed twice with cold 1×DPBS, and total protein was harvested by using Mammalian Protein Extraction Reagent (M-PER, Thermo Scientific) per the manufacturer's protocol. Protein concentration was quantified by using BCA Protein Assay Kit (Pierce), and the proteins were separated by using 10% SDS-polyacrylamide gel (20 μg protein per lane). After gel electrophoresis in 1× Running Buffer (50 mM MOPS, 50 mM Tris-base, pH 7.5, 1 mM EDTA, and 0.1% (w/v) SDS) at 120 V for 1 h, the proteins were transferred to a PVDF membrane (0.45 μm, Cytiva) at 300 mA for 1 h in 1× Transfer Buffer (25 mM Bicine, 25 mM Tris-base, pH 7.5, 1:4 MeOH:H2O). The membrane was blocked with 5% (w/v) non-fat dry milk in TBST (1×TBS containing 0.1% (v/v) Tween-20) for 1 h at room temperature. The primary antibody for QSOX1 protein (Cat #10092-932, Proteintech) or SQSTM1 protein (Cat #ab 109012, Abcam) was incubated with 1:1000 dilutions at 4° C. for 16 h. The membrane was then washed by TBST four times (5 min each) and then incubated with the secondary antibody (Cat #7074S, Cell Signaling) with 1:5000 dilution at room temperature for 2 h. The membrane was washed with TBST four times (5 min each) and imaged by using a SuperSignal West Pico Chemiluminescent Substrate (Pierce) per manufacturer's protocol. The blot was stripped by washing the membrane in 1× Stripping Buffer (200 mM glycine, pH 2.2, 4 mM SDS, 1% (v/v) Tween 20) at room temperature for 30 min, followed by blocking again as described above. […] Expression levels of proteins were quantified based on band intensity by using ImageJ. […]

MDA-MB-231 TBNC cells = experiment: Viability of MDA-MB-231 cells; parameters: dose or concentration left out as unconfirmed; conditions: the highest dose
QSOX1 mRNA = experiment: Chem-CLIP pull-down of QSOX1 mRNA in live cells, RT-qPCR (dose and time dependence)
Experimental: Chemical-Cross-linking and Isolation by Pull-down (Chem-CLIP) in Live Cells. MDA-MB-231 cells were seeded in 60 mm dishes and allowed to reach ˜80% confluency. The cells were then treated with 20 μM of compound in growth medium and incubated for 16 h. Cells were washed with 1×DPBS and irradiated with UV light for 10 min. Total RNA was harvested using a Zymo Quick-RNA Miniprep Kit per the manufacturer's protocol with DNase treatment. Total RNA was chemically fragmented by using an NEBNext Magnesium RNA Fragmentation Module (E6150S) per manufacturer's protocol to achieve final lengths between 100-150 nucleotides Pull-down of cross-linked RNAs was performed by adding 10 μg of total RNA to 100 μL of azide-disulfide agarose beads (Click Chemistry Tools, 1238-2) pre-washed with 25 mM HEPES, pH 7.0. The click reaction and pull-down were completed as described in “In Vitro Chemical-Crosslinking and Isolation by Pull-down (Chem-CLIP) with Fluorescently Labeled RNA”. The pulled down RNA was purified by RNA CleanXP beads (Beckman, A66514) per manufacturer's protocol.
For dose response studies, cells were treated with varying concentration of F1 (1, 5, 20 μM) as described above for 16 h. For time course studies, cells were treated with 20 μM of for 1, 4, 8, or 16 h. With the exception of compound concentration or time at which total RNA was harvested, the remaining steps of the protocol were completed as described above for both concentration- and time-dependent studies.
Analysis of mRNA Abundance by RT-qPCR. Unless stated otherwise, all RT-qPCR experiments were performed to measure nascent RNA levels by using Click-it Nascent RNA Capture Kit (Cat #C10365, Thermo Fisher) per the manufacturer's protocols. Briefly, cells were treated with 0.2 mM of ethynyl uridine (EU) in growth medium for 16 h, after which the medium was replaced with fresh growth medium lacking EU. Compound or ASO treatment was performed at the same time of initial EU treatment, and compounds were replenished after replacing the medium to remove EU. Total RNA was extracted by using a Zymo Quick-RNA Miniprep Kit as per manufacturer's protocol with DNase treatment. The click reaction and pull-down of nascent RNA were performed as described in “In Vitro Chemical-Crosslinking and Isolation by Pull-down (Chem-CLIP) with Fluorescently Labeled RNA”. Reverse transcription (RT) was performed by using 300 ng total RNA and a QScript cDNA synthesis kit (QuantaBio) per manufacturer's protocols qPCR was performed in 384-well plates by using Power SYBR Green Master Mix (Life Technologies) on a QuantStudioS™ Cycler (Applied Biosystems) using the “Comparative Ct with Melt” method.

[1] = test system: DNA and proteins in MDA-MB-231 cells; experiment: Cross-linking to RNA, DNA and proteins in live cells with clickable TAMRA azide; conditions: 16 h, TAMRA imaging
Experimental: Cross-linking to RNA, DNA, and Proteins in Live Cells with Clickable TAMRA Azide. MDA-MB-231 cells were seeded in 100 mm dishes and allowed to reach ˜80% confluency. The cells were then treated with […] of compound in growth medium and incubated for 16 h. Cells were washed with 1×DPBS and irradiated with UV light for 10 min. Total RNA was harvested using a Zymo Quick-RNA Miniprep Kit per the manufacturer's protocol with DNase and proteinase treatment. Total DNA was harvested using a Zymo Quick-DNA Miniprep Kit per the manufacturer's protocol with RNase and proteinase treatment. Total protein was harvested by using Mammalian Protein Extraction Reagent (M-PER, Thermo Scientific) per the manufacturer's protocol with RNase and DNase treatment. Each sample (4 μg for RNA or DNA, 25 μg for proteins) was then incubated in a “click reaction mixture” with TAMRA azide as described in In Vitro Screening of Functionalized Compounds with Clickable TAMRA Azide. DNA and RNA samples were separated by using a 1.0% (w/v) and 1.5% (w/v) agarose gel in TBE buffer, respectively. Protein samples were loaded to 10% SDS-polyacrylamide gel. All samples were first imaged with TAMRA channel by using a Typhoon FLA 9500 variable mode imager (GE Healthcare Life Sciences). […]

`CCOC(=O)C1=C(Nc2ccccc2)S/C(=C\c2ccc(OCCOCCOCCOCCNC(=O)CCC(=O)N(C)[C@H]3CC[C@@H](c4ccc(Cl)c(Cl)c4)c4ccccc43)c(O)c2)C1=O` [Compound F1-RIBOTAC] was tested, and the “reduction of QSOX1-a protein abundance” value (QSOX1-a protein) was about 35% and the effect on viability (MDA-MB-231 TBNC cells) was “no effect on viability”.
For `C#CCCC1(CCC(=O)N(C)[C@H]2CC[C@@H](c3ccc(Cl)c(Cl)c3)c3ccccc32)N=N1` [Compound F1], the “enrichment of QSOX1 mRNA” value (QSOX1 mRNA; 5 μM, 16 h incubation) was about 6 fold, the “enrichment of QSOX1 mRNA” value (QSOX1 mRNA; 20 μM, 1 h incubation) was “no enrichment” and the “enrichment of QSOX1 mRNA” value (QSOX1 mRNA; 20 μM, 4 h) was about 4 fold. The “enrichment of QSOX1 mRNA” value (QSOX1 mRNA; 20 μM, 8 h and 16 h time points) was “plateauing”, the “enrichment of QSOX1 mRNA” value (QSOX1 mRNA; 20 μM, 16 h incubation) was about 12 fold and the “enrichment of protein or DNA targets compared to the control probe” value [1] was “No significant enrichment”.

Source: US20250346943A1, “DEGRADER COMPOUNDS OF QSOX1 mRNA” (UNIVERSITY OF FLORIDA RESEARCH FOUNDATION, INCORPORATED, priority 2022, published 2025)
